For 10 molecules, inhibition results are on record in patent publication US12570687B2, “Triterpenoid compounds, pharmaceutical compositions thereof, and their use for treating a nuclear receptor subfamily 4 group a member 1-mediated disease” (NUCMITO PHARMACEUTICALS COMPANY LIMITED, priority 2019, dated 2026).

What all share (assay type): cell-based
Test [1] deals with HepG2 (liver cancer). Put plainly: MTT antiproliferative assay, HepG2. The following applies: Homo sapiens, HepG2, 10 μM, 48 or 72 h, read-out: inhibition of cell growth, HepG2. As for the experimental part:
(§1) The antiproliferative activity of a test compound was determined in cell lines: MDA-MB-231 (breast cancer), HepG2 (liver cancer), SW620 (colon cancer), A375 (malignant melanoma), A431 (epidermoid carcinoma), A549 (lung adenocarcinoma), and HeLa ([…]). MDA-MB-231, HepG2, SW480, SW620, A375, and A431 cells were cultured in Dulbecco's modified Eagle's medium (DMEM) containing 10% fetal bovine serum (FBS). HeLa cells were cultured in MEM/EBSS (MEM) containing 10% FBS. A549 cells were maintained in Kaighn's modification of Ham's F-12 medium containing 10% FBS. The colorimetric MTT (3-(4,5-dimethylthiazol-2-yl)-2,5-diphenyltetrazolium bromide) assay was used to measure the cell viability of different cells following treatment with the test compound.
(§2) Briefly cells were seeded in a 96 well plate at a density of 2,000-5,000 cells/well. Following attachment, the cells were treated with the test compound in media at various concentrations ranging from 0.137 to 100 μM or at a single concentration of 10 μM. After the cells were incubated at 37° C. for 48 or 72 h, MTT (20 μL, 5 mg/mL in PBS) was added to each well and the cells were incubated for another 4 h at 37° C. The supernatant was removed carefully and 150 μL of DMSO was added to each well to dissolve the MTT formazan crystals. The plate was shaken for 15-20 min and the absorbance value of each well was determined using a multi-well plate reader at 490 nm. The wells treated with DMSO were taken as a vehicle control. Data were also obtained similarly for all the replicates and the percentage viability was determined with respect to the DMSO-treated cells. The results are summarized in Table 1 below, wherein A represents no less than 80% inhibition of cell growth at 10 μM; B represents no less than 50% but less than 80% inhibition of cell growth at 10 μM; C represents no less than 30% but less than 50% inhibition of cell growth at 10 μM; and D represents less than 30% inhibition of cell growth at 10 μM.
For orientation: Tetrazolium assays rely on reduction of a dye to a coloured formazan, in cell work by metabolically active cells.

For test [2], the system named is SW620 (colon cancer). As to the kind of experiment: MTT antiproliferative assay, SW620. Conditions: Homo sapiens, SW-620, SW620, 10 μM, 48 or 72 h, read-out: inhibition of cell growth, SW620. The procedure: as §1, §2
Test [3] has as its system A375 (malignant melanoma). As to the kind of experiment: MTT antiproliferative assay, A375. The following applies: Homo sapiens, A-375, A375, 10 μM, 48 or 72 h, read-out: inhibition of cell growth, A375. As for the experimental part:
as §1, §2

Test [4] has as its system MDA-MB-231 (breast cancer). Put plainly: MTT antiproliferative assay, MDA-MB-231. Conditions: Homo sapiens, MDA-MB-231, 10 μM, 48 or 72 h, read-out: inhibition of cell growth, MDA-MB-231. The procedure: as §1, §2
In test [5] the test system is HeLa (ovarian cancer). As to the kind of experiment: MTT antiproliferative assay, HeLa. Conditions: Homo sapiens, 48 or 72 h, read-out: inhibition of cell growth, HELA. The procedure: as §1, §2
For test [6], the system named is A549 (lung adenocarcinoma). Put plainly: MTT antiproliferative assay, A549. Conditions: Homo sapiens, A549, 10 μM, 48 or 72 h, read-out: inhibition of cell growth, A549. As for the experimental part: as §1, §2
Test [7] deals with A431 (epidermoid carcinoma). As to the kind of experiment: MTT antiproliferative assay, A431. The following applies: Homo sapiens, A-431, A431, 10 μM, 48 or 72 h, read-out: inhibition of cell growth, A431. The procedure: as §1, §2

In general, inhibition refers to the percentage by which the read-out fell short of the control. Regarding `COC1(C)C2=CC=C3[C@@](C)(CC[C@@]4(C)[C@@H]5C[C@](C)(C(=O)O)CC[C@]5(C)CC[C@]34C)C2=CC(=O)C1CC#N` (stereo in doubt) [Compound A38, (2R,4aS,6aS,9S,12bR,14aS,14bR)-10-(cyanomethyl)-9-methoxy-2,4a,6a,9,12b,14a-hexamethyl-11-oxo-1,2,3,4,4a,5,6,6a,9,10,11,12b,13,14,14a,14b-hexadecahydropicene-2-carboxylic acid], the inhibition at 10 µM is under 30% in test [1]; 50 to 80% in test [2]; 30 to 50% in test [3]; 30 to 50% in test [4]; at least 80% in test [5]; under 30% in test [6]. The inhibition at 10 µM in test [7] lay within 30 to 50%.

In the case of `[2H]C([2H])([2H])O[C@]1(C)C(=O)C(=O)C=C2C1=CC=C1[C@@]2(C)CC[C@@]2(C)[C@@H]3C[C@](C)(C(=O)O)CC[C@]3(C)CC[C@]12C` [Compound A2, (2R,4aS,6aS,9S,12bR,14aS,14bR)-9-(methoxy-d3)-2,4a,6a,9,12b,14a-hexamethyl-10,11-dioxo-1,2,3,4,4a,5,6,6a,9,10,11,12b,13,14,14a,14b-hexadecahydropicene-2-carboxylic acid], the inhibition at 10 µM is 50 to 80% in test [1]; 30 to 50% in test [2]; 30 to 50% in test [3]; 50 to 80% in test [4]; at least 80% in test [5]; 30 to 50% in test [6]. The inhibition at 10 µM in test [7] is 50 to 80%.

With `CC(=O)OC1(C)C(=O)C(=O)C=C2C1=CC=C1[C@@]2(C)CC[C@@]2(C)[C@@H]3C[C@](C)(C(=O)O)CC[C@]3(C)CC[C@]12C` (stereo partly drawn) [Compound A3, (2R,4aS,6aS,12bR,14aS,14bR)-9-(acetyloxy)-2,4a,6a,9,12b,14a-hexamethyl-10,11-dioxo-1,2,3,4,4a,5,6,6a,9,10,11,12b,13,14,14a,14b-hexadecahydropicene-2-carboxylic acid], the inhibition at 10 µM in test [1] was under 30%; in test [2], under 30%; in test [3], under 30%; in test [4] it was under 30%; in test [5], 50 to 80%; in test [6], 50 to 80%. Also, the inhibition at 10 µM in test [7] is at least 80%.

Regarding `COC(=O)[C@]1(C)CC[C@]2(C)CC[C@]3(C)C4=CC=C5C(=CC(=O)C(=O)C5(C)c5c[nH]c6ccccc56)[C@]4(C)CC[C@@]3(C)[C@@H]2C1` (stereo partly drawn) [Compound A4, methyl (2R,4aS,6aS,12bR,14aS,14bR)-9-(1H-indol-3-yl)-2,4a,6a,9,12b,14a-hexamethyl-10,11-dioxo-1,2,3,4,4a,5,6,6a,9,10,11,12b,13,14,14a,14b-hexadecahydropicene-2-carboxylate], the inhibition at 10 µM is 50 to 80% in test [1]; 50 to 80% in test [2]; 50 to 80% in test [3]; 30 to 50% in test [4]; at least 80% in test [5]; 50 to 80% in test [6]. In test [7], the inhibition at 10 µM is at least 80%.

Regarding `COC(=O)[C@]1(C)CC[C@]2(C)CC[C@]3(C)C4=CC=C5C(=CC(=O)C(=O)[C@@]5(C)OC)[C@]4(C)CC[C@@]3(C)[C@@H]2C1` [Compound A5, methyl (2R,4aS,6aS,9S,12bR,14aS,14bR)-9-methoxy-2,4a,6a,9,12b,14a-hexamethyl-10,11-dioxo-1,2,3,4,4a,5,6,6a,9,10,11,12b,13,14,14a,14b-hexadecahydropicene-2-carboxylate], the inhibition at 10 µM in test [1] is at least 80%; in test [2], 50 to 80%; in test [3] it was 50 to 80%; in test [4], at least 80%; in test [5], at least 80%; in test [6], 30 to 50%. In addition, the inhibition at 10 µM in test [7] was at least 80%.

With `CO[C@]1(C)C(=O)C(=O)C=C2C1=CC=C1[C@@]2(C)CC[C@@]2(C)[C@@H]3C[C@](C)(C(=O)On4nnc5ccccc54)CC[C@]3(C)CC[C@]12C` [Compound A6, 1H-1,2,3-benzotriazol-1-yl (2R,4aS,6aS,9S,12bR,14aS,14bR)-9-methoxy-2,4a,6a,9,12b,14a-hexamethyl-10,11-dioxo-1,2,3,4,4a,5,6,6a,9,10,11,12b,13,14,14a,14b-hexadecahydropicene-2-carboxylate], the inhibition at 10 µM was at least 80% in test [1]; 50 to 80% in test [2]; 30 to 50% in test [3]; 50 to 80% in test [4]; at least 80% in test [5]; 50 to 80% in test [6]. The inhibition at 10 µM in test [7] lay in the range of 50 to 80%.

As to `CO[C@]1(C)C(=O)C(=O)C=C2C1=CC=C1[C@@]2(C)CC[C@@]2(C)[C@@H]3C[C@](C)(C(=O)F)CC[C@]3(C)CC[C@]12C` [Compound A8, (2R,4aS,6aS,9S,12bR,14aS,14bR)-9-methoxy-2,4a,6a,9,12b,14a-hexamethyl-10,11-dioxo-1,2,3,4,4a,5,6,6a,9,10,11,12b,13,14,14a,14b-hexadecahydropicene-2-carbonyl fluoride], the inhibition at 10 µM in test [1] is at least 80%; in test [2], 50 to 80%; in test [3], 30 to 50%; in test [4], 50 to 80%; in test [5], 50 to 80%; in test [6] it was 50 to 80%. Moreover, in test [7], the inhibition at 10 µM was at least 80%.

With `CCNC(=O)[C@]1(C)CC[C@]2(C)CC[C@]3(C)C4=CC=C5C(=CC(=O)C(=O)[C@@]5(C)OC)[C@]4(C)CC[C@@]3(C)[C@@H]2C1` [Compound A10, (2R,4aS,6aS,9S,12bR,14aS,14bR)—N-ethyl-9-methoxy-2,4a,6a,9,12b,14a-hexamethyl-10,11-dioxo-1,2,3,4,4a,5,6,6a,9,10,11,12b,13,14,14a,14b-hexadecahydropicene-2-carboxamide], the inhibition at 10 µM in test [1] is 50 to 80%; in test [2], 50 to 80%; in test [3], 30 to 50%; in test [4], at least 80%; in test [5], at least 80%; in test [6] it was 30 to 50%. Also, the inhibition at 10 µM in test [7] was in the range of 50 to 80%.

As to `CO[C@]1(C)C(=O)C(=O)C=C2C1=CC=C1[C@@]2(C)CC[C@@]2(C)[C@@H]3C[C@](C)(C(=O)OCc4ccccc4)CC[C@]3(C)CC[C@]12C` [Compound A11, benzyl (2R,4aS,6aS,9S,12bR,14aS,14bR)-9-methoxy-2,4a,6a,9,12b,14a-hexamethyl-10,11-dioxo-1,2,3,4,4a,5,6,6a,9,10,11,12b,13,14,14a,14b-hexadecahydropicene-2-carboxylate], the inhibition at 10 µM is at least 80% in test [1]; at least 80% in test [2]; 50 to 80% in test [3]; at least 80% in test [4]; at least 80% in test [5]; under 30% in test [6]. Besides, the inhibition at 10 µM in test [7] is under 30%.

Turning to `CCCNC(=O)[C@]1(C)CC[C@]2(C)CC[C@]3(C)C4=CC=C5C(=CC(=O)C(=O)[C@@]5(C)OC)[C@]4(C)CC[C@@]3(C)[C@@H]2C1` [Compound A12, (2R,4aS,9S,6aS,12bR,14aS,14bR)—N-propyl-9-methoxy-2,4a,6a,9,12b,14a-hexamethyl-10,11-dioxo-1,2,3,4,4a,5,6,6a,9,10,11,12b,13,14,14a,14b-hexadecahydropicene-2-carboxamide], the inhibition at 10 µM was at least 80% in test [1]; 50 to 80% in test [2]; 30 to 50% in test [3]; 50 to 80% in test [4]; at least 80% in test [5]; at least 80% in test [6]. Also, the inhibition at 10 µM in test [7] is at least 80%.
